Tests used:
[1] = tested on: M-1-P-producing enzyme; assay: Maltose transfer reaction without phosphate, HPLC analysis of products; type: biochemical, Corynebacterium glutamicum JCM1321; conditions: 2.0% substrate, 0.16 U/mL enzyme, one hour at 37°C
Protocol: As substrates, 2% dextrin MAX 1000 (Matsutani Chemical) and 1M phosphate buffer (pH 7) were employed. To the substrates, a suitably diluted enzyme was added, and the mixture was incubated for one hour at 37°C, followed by quantification of the produced […] through HPLC. Specifically, quantification of […] was performed through use of a DX500 chromatography system (product of DIONEX Corporation) (column: CarboPac PA1 (4x250 mm), detector: ED40 pulsed amperometric detector, eluent: (solution A) 100mM sodium hydroxide; (solution B) 100mM sodium hydroxide containing 1M sodium acetate). Linear gradient analysis was employed (initial concentration: solution.A 90% : solution B 10%, 0-17 min.: solution A 18.5% : solution B 81.5%). As standard substances, 100mM and 50mM […] products (product of SIGMA) were employed. […] One enzyme unit (1U) is defined as the amount of enzyme that produces 1 μM of […] per minute. 0.16 U/mL […]-producing enzyme was allowed to react with each of the substrates having different chain lengths (glucose, maltose, maltotriose, maltotetraose, maltopentaose, maltohexaose (Seikagaku Corporation)) (2.0%) for one hour at 37°C, and the reaction mixture was subjected to HPLC for analysis in a manner similar to that described in Example 1 (the results are represented as peak area). The retention times of maltooligosaccharides (DP=1 to 11) were estimated through analysis of dextrin (Matsutani Chemical).

[2] = tested on: M-1-P-producing enzyme; assay: Substrate specificity: production of M-1-P from phosphate and saccharide substrates, HPLC quantification; type: biochemical, Corynebacterium glutamicum JCM1321; conditions: 2.5% substrate, 250mM phosphate buffer (pH 7), 0.16 U/mL enzyme, 15 hours at 37°C
Protocol: As substrates, 2% dextrin MAX 1000 (Matsutani Chemical) and 1M phosphate buffer (pH 7) were employed. To the substrates, a suitably diluted enzyme was added, and the mixture was incubated for one hour at 37°C, followed by quantification of the produced […] through HPLC. Specifically, quantification of […] was performed through use of a DX500 chromatography system (product of DIONEX Corporation) (column: CarboPac PA1 (4x250 mm), detector: ED40 pulsed amperometric detector, eluent: (solution A) 100mM sodium hydroxide; (solution B) 100mM sodium hydroxide containing 1M sodium acetate). Linear gradient analysis was employed (initial concentration: solution.A 90% : solution B 10%, 0-17 min.: solution A 18.5% : solution B 81.5%). As standard substances, 100mM and 50mM […] products (product of SIGMA) were employed. […] One enzyme unit (1U) is defined as the amount of enzyme that produces 1 μM of […] per minute. To 2.5% Dextrin MAX 1000 (Matsutani Chemical) and 250mM phosphate buffer (pH 7), 0.16 U/mL M-1-P-producing enzyme was added, and the mixture was allowed to react for 15 hours at 37°C. In a manner similar to that described in Example 1, […] was quantified. […] To 250mM Phosphate buffer (pH 7) and each of substrates having different chain lengths (glucose, maltose, maltotriose, maltotetraose, maltopentaose, maltohexaose (Seikagaku Corporation)) (2.5%), 0.16 U/mL M-1-P-producing enzyme was added, and the mixture was allowed to react for 15 hours at 37°C. In a manner similar to that described in Example 1, […] was quantified.

For `OC[C@H]1O[C@H](O[C@H]2[C@H](O)[C@@H](O)C(O)O[C@@H]2CO)[C@H](O)[C@@H](O)[C@@H]1O` (mixture of isomers) [Maltose], the “Product (Peak area x 10^6): DP=3” value [1] was 0.27 x 10^6, the “Product (Peak area x 10^6): DP=4” value [1] was 0.00 x 10^6 and the “Product (Peak area x 10^6): DP=5” value [1] was 0.00 x 10^6. For the same compound, the “Product (Peak area x 10^6): DP=6” value [1] was 0.00 x 10^6, the “Product (Peak area x 10^6): DP=7” value [1] was 0.00 x 10^6 and the “Product (Peak area x 10^6): DP=8” value [1] was 0.00 x 10^6. For the same compound, the “Product (Peak area x 10^6): DP=9” value [1] was 0.00 x 10^6, the “Product (Peak area x 10^6): DP=10” value [1] was 0.00 x 10^6 and the “Product (Peak area x 10^6): DP=11” value [1] was 0.00 x 10^6. The “Product (Peak area x 10^6): Glucose” value [1] was 0.19 x 10^6 and the “Product (Peak area x 10^6): Maltose” value [1] was 46.79 x 10^6.
In the case of `OC[C@H]1OC(O)[C@H](O)[C@@H](O)[C@@H]1O` (some centres unmarked) [Glucose], the “Product (Peak area x 10^6): DP=3” value [1] is reported as 0.00 x 10^6, the “Product (Peak area x 10^6): DP=4” value [1] is reported as 0.00 x 10^6 and the “Product (Peak area x 10^6): DP=5” value [1] is reported as 0.00 x 10^6. The “Product (Peak area x 10^6): DP=6” value [1] was 0.00 x 10^6, the “Product (Peak area x 10^6): DP=7” value [1] was 0.00 x 10^6 and the “Product (Peak area x 10^6): DP=8” value [1] was 0.00 x 10^6. The “Product (Peak area x 10^6): DP=9” value [1] was 0.00 x 10^6, the “Product (Peak area x 10^6): DP=10” value [1] was 0.00 x 10^6 and the “Product (Peak area x 10^6): DP=11” value [1] was 0.00 x 10^6. The “Product (Peak area x 10^6): Glucose” value [1] was 65.97 x 10^6 and the “Product (Peak area x 10^6): Maltose” value [1] was 0.00 x 10^6.
In the case of `OC[C@H]1O[C@H](O[C@H]2[C@H](O)[C@@H](O)[C@@H](O[C@H]3[C@H](O)[C@@H](O)[C@@H](O[C@H]4[C@H](O)[C@@H](O)[C@@H](O[C@H]5[C@H](O)[C@@H](O)[C@@H](O[C@H]6[C@H](O)[C@@H](O)[C@@H](O[C@H]7[C@H](O)[C@@H](O)C(O)O[C@@H]7CO)O[C@@H]6CO)O[C@@H]5CO)O[C@@H]4CO)O[C@@H]3CO)O[C@@H]2CO)[C@H](O)[C@@H](O)[C@@H]1O` (some centres unmarked) [Maltoheptaose], the “Amount of maltose-1-phosphate produced” value [2] is reported as 96.1 µM, the “Product (Peak area x 10^6): DP=3” value [1] is reported as 0.12 x 10^6 and the “Product (Peak area x 10^6): DP=4” value [1] is reported as 0.19 x 10^6. The “Product (Peak area x 10^6): DP=5” value [1] was 9.59 x 10^6, the “Product (Peak area x 10^6): DP=6” value [1] was 0.00 x 10^6 and the “Product (Peak area x 10^6): DP=7” value [1] was 6.36 x 10^6. For the same compound, the “Product (Peak area x 10^6): DP=8” value [1] was 0.00 x 10^6, the “Product (Peak area x 10^6): DP=9” value [1] was 3.42 x 10^6 and the “Product (Peak area x 10^6): DP=10” value [1] was 0.00 x 10^6. For the same compound, the “Product (Peak area x 10^6): DP=11” value [1] was 3.47 x 10^6, the “Product (Peak area x 10^6): Glucose” value [1] was 0.11 x 10^6 and the “Product (Peak area x 10^6): Maltose” value [1] was 0.28 x 10^6.
For `OC[C@H]1O[C@H](O[C@H]2[C@H](O)[C@@H](O)[C@@H](O[C@H]3[C@H](O)[C@@H](O)[C@@H](O[C@H]4[C@H](O)[C@@H](O)[C@@H](O[C@H]5[C@H](O)[C@@H](O)[C@@H](O[C@H]6[C@H](O)[C@@H](O)C(O)O[C@@H]6CO)O[C@@H]5CO)O[C@@H]4CO)O[C@@H]3CO)O[C@@H]2CO)[C@H](O)[C@@H](O)[C@@H]1O` (some centres unmarked) [Maltohexaose], the “Amount of maltose-1-phosphate produced” value [2] was 49.6 µM, the “Product (Peak area x 10^6): DP=3” value [1] was 0.37 x 10^6 and the “Product (Peak area x 10^6): DP=4” value [1] was 10.20 x 10^6. For the same compound, the “Product (Peak area x 10^6): DP=5” value [1] was 0.00 x 10^6, the “Product (Peak area x 10^6): DP=6” value [1] was 8.87 x 10^6 and the “Product (Peak area x 10^6): DP=7” value [1] was 0.00 x 10^6. For the same compound, the “Product (Peak area x 10^6): DP=8” value [1] was 5.04 x 10^6, the “Product (Peak area x 10^6): DP=9” value [1] was 0.00 x 10^6 and the “Product (Peak area x 10^6): DP=10” value [1] was 3.96 x 10^6. For the same compound, the “Product (Peak area x 10^6): DP=11” value [1] was 0.00 x 10^6, the “Product (Peak area x 10^6): Glucose” value [1] was 0.05 x 10^6 and the “Product (Peak area x 10^6): Maltose” value [1] was 0.61 x 10^6.
`OC[C@H]1O[C@H](O[C@H]2[C@H](O)[C@@H](O)[C@@H](O[C@H]3[C@H](O)[C@@H](O)[C@@H](O[C@H]4[C@H](O)[C@@H](O)[C@@H](O[C@H]5[C@H](O)[C@@H](O)C(O)O[C@@H]5CO)O[C@@H]4CO)O[C@@H]3CO)O[C@@H]2CO)[C@H](O)[C@@H](O)[C@@H]1O` (some centres unmarked) [Maltopentaose] was tested, and the “Amount of maltose-1-phosphate produced” value [2] was 1.04 µM, the “Product (Peak area x 10^6): DP=3” value [1] was 0.51 x 10^6 and the “Product (Peak area x 10^6): DP=4” value [1] was 0.58 x 10^6. The “Product (Peak area x 10^6): DP=5” value [1] was 26.40 x 10^6, the “Product (Peak area x 10^6): DP=6” value [1] was 0.00 x 10^6 and the “Product (Peak area x 10^6): DP=7” value [1] was 0.52 x 10^6. The “Product (Peak area x 10^6): DP=8” value [1] was 0.00 x 10^6, the “Product (Peak area x 10^6): DP=9” value [1] was 0.00 x 10^6 and the “Product (Peak area x 10^6): DP=10” value [1] was 0.00 x 10^6. The “Product (Peak area x 10^6): DP=11” value [1] was 0.00 x 10^6, the “Product (Peak area x 10^6): Glucose” value [1] was 0.09 x 10^6 and the “Product (Peak area x 10^6): Maltose” value [1] was 0.27 x 10^6.
With `OC[C@H]1O[C@H](O[C@H]2[C@H](O)[C@@H](O)[C@@H](O[C@H]3[C@H](O)[C@@H](O)[C@@H](O[C@H]4[C@H](O)[C@@H](O)C(O)O[C@@H]4CO)O[C@@H]3CO)O[C@@H]2CO)[C@H](O)[C@@H](O)[C@@H]1O` (some centres unmarked) [Maltotetraose] the “Product (Peak area x 10^6): DP=3” value [1] was 1.25 x 10^6, the “Product (Peak area x 10^6): DP=4” value [1] was 30.80 x 10^6 and the “Product (Peak area x 10^6): DP=5” value [1] was 0.00 x 10^6. For the same compound, the “Product (Peak area x 10^6): DP=6” value [1] was 0.36 x 10^6, the “Product (Peak area x 10^6): DP=7” value [1] was 0.00 x 10^6 and the “Product (Peak area x 10^6): DP=8” value [1] was 0.00 x 10^6. The “Product (Peak area x 10^6): DP=9” value [1] was 0.00 x 10^6, the “Product (Peak area x 10^6): DP=10” value [1] was 0.00 x 10^6 and the “Product (Peak area x 10^6): DP=11” value [1] was 0.00 x 10^6. For the same compound, the “Product (Peak area x 10^6): Glucose” value [1] was 0.19 x 10^6 and the “Product (Peak area x 10^6): Maltose” value [1] was 0.15 x 10^6.
`OC[C@H]1O[C@H](O[C@H]2[C@H](O)[C@@H](O)[C@@H](O[C@H]3[C@H](O)[C@@H](O)C(O)O[C@@H]3CO)O[C@@H]2CO)[C@H](O)[C@@H](O)[C@@H]1O` (some centres unmarked) [Maltotriose] was tested, and the “Product (Peak area x 10^6): DP=3” value [1] was 33.27 x 10^6, the “Product (Peak area x 10^6): DP=4” value [1] was 0.12 x 10^6 and the “Product (Peak area x 10^6): DP=5” value [1] was 0.00 x 10^6. For the same compound, the “Product (Peak area x 10^6): DP=6” value [1] was 0.00 x 10^6, the “Product (Peak area x 10^6): DP=7” value [1] was 0.00 x 10^6 and the “Product (Peak area x 10^6): DP=8” value [1] was 0.00 x 10^6. For the same compound, the “Product (Peak area x 10^6): DP=9” value [1] was 0.00 x 10^6, the “Product (Peak area x 10^6): DP=10” value [1] was 0.00 x 10^6 and the “Product (Peak area x 10^6): DP=11” value [1] was 0.00 x 10^6. For the same compound, the “Product (Peak area x 10^6): Glucose” value [1] was 0.52 x 10^6 and the “Product (Peak area x 10^6): Maltose” value [1] was 1.84 x 10^6.
